# Laboratory results taken from patent US10201507B2, “Modulators of intracellular chloride concentration for treating fragile X syndrome” (NEUROCHLORE, priority 2012, dated 2019).
# Entries after “also recorded” stand apart in the source; their conditions may differ.
# Columns and labels:
# CA3 pyramidal cells = test: Single GABAA channel recordings of driving force of GABA (DFGABA) in hippocampal slices, drug applied to slice; format: cell-based, mouse
# Protocol: Mice lacking Fmr1 (referred to as Fmr1^−/−) were bred in our animal facility. […] For all experiments, Fmr1^−/− mice were used with wild-type littermates as a control group. The offspring were used for experiments at E18, P0, P2, P4, P7, P9, P15 and P30. Experiments were carried out on offspring of either sex and in a blind manner at E18 and P0.
# Experiments were performed on fetuses and neonatal wild type and Fragile X mice from the embryonic day […] to the postnatal day P38 (term is E21). All of the research was performed in compliance with the national guidelines on human care and use of laboratory animals and approved by INSERM.
# Hippocampal slices (300-500 μm thick) were prepared using a Microm tissue slicer (International GmbH, Germany) as described previously (Tyzio et al., 2006, 2008). Slices were kept in oxygenated (95% O2/5% CO2) artificial cerebrospinal fluid (ACSF) of the following composition (in mM): NaCl 126, KCl 3.5, CaCl2 2.0, MgCl2 1.3, NaHCO3 25, NaH2PO4 1.2 and glucose 11 (pH 7.4) at room temperature (20-22° C.) at least 1 hour before use.
# For recordings, slices were placed into a conventional fully submerged chamber superfused with ACSF at a rate of 2-3 ml/min at room temperature. Patch clamp recordings from visually identified CA3 pyramidal cells in cell-attached configuration were performed using EPC-10 amplifier (HEKA Elektronik Dr. Schulze GmbH, Lambrecht/Pfalz, Germany). Patch pipette solution for recordings of single GABAA channels contained (in mM): NaCl 120, KCl 5, TEA-Cl 20, 4-aminopyridine 5, CaCl2 0.1, MgCl2 10, glucose 10, Hepes-NaOH 10 buffered to pH 7.2-7.3 and GABA 2 μM. Analysis of currents through single channels and current-voltage relationships were performed using Clampfit 9.2 (Axon Instruments, Union City, Calif.). Recordings were digitized (10 kHz) online with Digidata-1200 interface card (Axon Instruments, Union City, Calif.) and analyzed offline with Axon package, MiniAnalysis (S (Synaptsoft, Decatur, Ga.), and Origin (Microcal Software, Northampton, Mass.). […]
# [1] = test system: hippocampal CA3 pyramidal neurons; test: DFGABA in offspring at P15 after maternal pretreatment; format: in vivo, mouse
# Protocol: Mice lacking Fmr1 (referred to as Fmr1^−/−) were bred in our animal facility. […] For all experiments, Fmr1^−/− mice were used with wild-type littermates as a control group. The offspring were used for experiments at E18, P0, P2, P4, P7, P9, P15 and P30. Experiments were carried out on offspring of either sex and in a blind manner at E18 and P0. Hippocampal slices (300-500 μm thick) were prepared using a Microm tissue slicer (International GmbH, Germany) as described previously (Tyzio et al., 2006, 2008). Slices were kept in oxygenated (95% O2/5% CO2) artificial cerebrospinal fluid (ACSF) of the following composition (in mM): […] For recordings, slices were placed into a conventional fully submerged chamber superfused with ACSF at a rate of 2-3 ml/min at room temperature. Patch clamp recordings from visually identified CA3 pyramidal cells in cell-attached configuration were performed using EPC-10 amplifier (HEKA Elektronik Dr. Schulze GmbH, Lambrecht/Pfalz, Germany). Patch pipette solution for recordings of single GABAA channels contained (in mM): NaCl 120, KCl 5, TEA-Cl 20, 4-aminopyridine 5, CaCl2 0.1, MgCl2 10, glucose 10, Hepes-NaOH 10 buffered to pH 7.2-7.3 and GABA 2 μM. Analysis of currents through single channels and current-voltage relationships were performed using Clampfit 9.2 (Axon Instruments, Union City, Calif.). […]
# hippocampal slices = test: Extracellular field potentials / spike frequency in hippocampal slices at P15 on isoguvacine; format: cell-based, mouse
# From the text: Recording were made in the hippocampal slices using tungsten wire electrodes (diameter: 50 μm, California Fine Wire, Grover Beach, Calif.) and a low-noise multichannel DAM-8A amplifiers (WPI, GB; […]; gain: ×1000). The signals were digitized using an analogue-to-digital converter (Digidata 1440A, Axon Instruments, USA). pCLAMP 10.1, Clampfit 10.1 (Axon Instruments, USA), MiniAnalysis 6.03 (Synaptosoft, Decatur, Calif.) and Origin 7.5 (Microcal Software, USA) programs were used for the acquisition and analysis of the synaptic activities. Sampling interval per signal was 100 microseconds (10 kHz).
# To test whether depolarizing actions of GABA were associated with neuronal excitation, the effect of the GABAA receptor agonist isoguvacine was tested. […] To test whether maternal treatment with bumetanide before delivery switches the action of GABA from excitatory to inhibitory in offsprings at P15, pregnant females were treated orally 1 day before delivery with bumetanide (2-2.5 mg/kg in drinking water) and juvenile offspring neurons recorded at P15. […] Therefore, excitatory actions of GABA during delivery produce long term deleterious effects on electrophysiological parameters of FXS juvenile neurons. In FXS mice, GABAergic inputs are excitatory and contribute to hyperexcitability of the network. Bumetanide decreases [Cl^−]i and consequently reduces contribution of excitatory GABAergic inputs in the overall network activity.
compound,measurement,setting,value
CCCCNc1cc(C(=O)O)cc(S(N)(=O)=O)c1Oc1ccccc1 [bumetanide],Effect on DFGABA (in words),"CA3 pyramidal cells; FXS neurons at P0 (birth), oxytocin 1 μM",shift it to hyperpolarization; also recorded: fully blocked the depolarising DFGABA
same,Effect on DFGABA (in words),CA3 pyramidal cells; wild type pyramidal cells at P0,increases hyperpolarization
same,average DFGABA,"[1]; P15 FXS mice, maternal pretreatment orally 1 day before delivery, 2-2.5 mg/kg in drinking water",1.0±1.1 mV
same,Effect on DFGABA in offsprings (in words),"[1]; P15 FXS, maternal pretreatment",restored control DFGABA values
same,normalized spike frequency,"hippocampal slices; FXS mice pretreated with bumetanide, P15, on isoguvacine (10 μM)",80.8±8.2%
same,Effect on excitatory actions of isoguvacine (in words),"hippocampal slices; FXS offspring P15, maternal pretreatment",suppressed the excitatory actions
